Assay results from paper PMC8999917, “Structure–Activity Relationship of Synthetic Ginkgolic Acid Analogs for Treating Type 2 Diabetes by PTPN9 Inhibition” (International Journal of Molecular Sciences, 2022).

Experiments:
Format in all cases: cell-based, mouse
C2C12 myotubes = test: 2-NBDG glucose uptake assay in C2C12 myotubes; details: 10 µM, plate reader fluorescence
Method: PTPN9 inhibitors have been reported to increase glucose uptake. To clarify the antidiabetic effects of GA analogs, a 2-NBDG (a fluorescent glucose probe) uptake assay was performed using differentiated 3T3-L1 adipocytes and C2C12 myotubes. After 16 h of starvation, differentiated 3T3-L1 adipocytes were incubated with compounds 1e and 1f for another 1 h. The cells were subsequently incubated with 2-NBDG for 30 min and washed with PBS before quantifying the fluorescence of 2-NBDG taken up by the cells. The 2-NBDG uptake-increasing effects of GA and its analogs in 3T3-L1 cells were monitored via confocal microscopy. The blank group was set in the absence of 2-NBDG but was treated with DMSO to determine the basal fluorescence levels in 3T3-L1 adipocytes (Figure 4A, Basal); in the negative control group, 3T3-L1 adipocytes were treated with 2-NBDG and DMSO for the evaluation of basal glucose uptake levels (Figure 4A, DMSO). […] Furthermore, to quantify 2-NBDG uptake, fluorescence intensity (Ex/Em = 485/535 nm) was measured using a plate reader. […] After incubation, the cells were washed with pre-cold PBS, and the fluorescence intensity was measured using a fluorescence microplate reader (Victor^TM X4, PerkinElmer, Waltham, MA, USA) (Ex/Em = 485/535 nm). […]

AMPK phosphorylation [1] = test: Western blot of AMPK phosphorylation in mature 3T3-L1 adipocytes; details: 5 or 10 µM for 1 h
Method: To further elucidate the pathway involved in 1e-mediated glucose uptake promotion, AMPK and Akt phosphorylation in mature 3T3-L1 adipocytes was evaluated via Western blotting following treatment with 5 or 10 µM 1e for 1 h.
(§1) The expression levels of glucose uptake-related proteins were determined via Western blotting, as previously described. In brief, differentiated 3T3-L1 cells were plated in six-well plates at a 1.5 × 10^4 cells/well density in a final volume of 2 mL. Then, the cells were incubated in the presence of DMSO or different concentrations of the compounds and harvested using a RIPA buffer (Sigma-Aldrich, Saint Louis, MS, USA) and a protease inhibitor cocktail (Roche Korea, Seoul, Korea) after 1 h of incubation. Equivalent amounts of proteins (20 µg) from each lysate were separated by 10% SDS-PAGE and transferred onto PVDF membranes (Merk KgaA, Darmstadt, Germany), where they were maintained for 120 min at 200 mA. The membranes were blocked with 5% skim milk for 1 h at room temperature in 0.1% TBST and then probed with primary antibodies at different concentrations in 0.1% BSA overnight at 4 °C according to the manufacturer’s instructions. Secondary antibodies were added to the membranes at a concentration of 1:2000 for 1 h at room temperature, and immunoreactive bands were detected via ECL (GE Healthcare Korea Co., Ltd., Incheon, Korea). […]

AMPK phosphorylation [2] = test: Western blot of AMPK phosphorylation in C2C12 myotubes
Method: To further investigate the mechanism of action of 1e, we evaluated its effects on AMPK and AKT phosphorylation in C2C12 myotubes. […] In line with the results obtained in 3T3-L1 cells, in the absence of insulin, 1e had no effects on basal p-Akt expression levels (Figure 6A).
as §1, with “The membranes were blocked with 5% skim milk for 1 h at room temperature in 0.1% TBST and then probed with primary antibodies at different concentrations in 0.1% BSA overnight at 4 °C according to the manufacturer’s instructions.” left out

Q: What does the source list for CCCCCCCCCCCCCOc1cccc(O)c1C(=O)O [Compound 1e]?
A: 2-NBDG uptake increase compared to the DMSO control (C2C12 myotubes): ~1.4 fold; AMPK phosphorylation (AMPK phosphorylation [1]): significantly induced AMPK phosphorylation in a concentration-dependent manner; AMPK phosphorylation (AMPK phosphorylation [2]): significantly upregulated AMPK phosphorylation in a concentration-dependent manner
